These are literature values, as cited in article PMC10049495, “Antitumor Activity of PEGylated and TEGylated Phenothiazine Derivatives: Structure–Activity Relationship” (International Journal of Molecular Sciences, 2023).

In data set [1] the test system is Colo205. The note with it: cited from earlier work.
In data set [2] the test system is U87-MG. The note with it: cell line not clear from layout (U87-MG assumed); cited from earlier work.

By IC50 is commonly meant the point on the concentration scale where inhibition reaches its midpoint. Consider `CN(C)CCCN1c2ccccc2Sc2ccc(Cl)cc21` [Chlorpromazine], for which the IC50 in data set [1] is 10 µM. `OCCN1CCN(CCCN2c3ccccc3Sc3ccc(Cl)cc32)CC1` [Perphenazine]: the IC50 in data set [2] was 6.8 µM.
